The results in this text go back to US20040197865A1, “Gene expression systems and recombinant cell lines” (3M Innovative Properties Company, priority 2002, published 2004).

Molecules are shown by their SMILES.

T1 sequence (Q9Y2C9 32-796): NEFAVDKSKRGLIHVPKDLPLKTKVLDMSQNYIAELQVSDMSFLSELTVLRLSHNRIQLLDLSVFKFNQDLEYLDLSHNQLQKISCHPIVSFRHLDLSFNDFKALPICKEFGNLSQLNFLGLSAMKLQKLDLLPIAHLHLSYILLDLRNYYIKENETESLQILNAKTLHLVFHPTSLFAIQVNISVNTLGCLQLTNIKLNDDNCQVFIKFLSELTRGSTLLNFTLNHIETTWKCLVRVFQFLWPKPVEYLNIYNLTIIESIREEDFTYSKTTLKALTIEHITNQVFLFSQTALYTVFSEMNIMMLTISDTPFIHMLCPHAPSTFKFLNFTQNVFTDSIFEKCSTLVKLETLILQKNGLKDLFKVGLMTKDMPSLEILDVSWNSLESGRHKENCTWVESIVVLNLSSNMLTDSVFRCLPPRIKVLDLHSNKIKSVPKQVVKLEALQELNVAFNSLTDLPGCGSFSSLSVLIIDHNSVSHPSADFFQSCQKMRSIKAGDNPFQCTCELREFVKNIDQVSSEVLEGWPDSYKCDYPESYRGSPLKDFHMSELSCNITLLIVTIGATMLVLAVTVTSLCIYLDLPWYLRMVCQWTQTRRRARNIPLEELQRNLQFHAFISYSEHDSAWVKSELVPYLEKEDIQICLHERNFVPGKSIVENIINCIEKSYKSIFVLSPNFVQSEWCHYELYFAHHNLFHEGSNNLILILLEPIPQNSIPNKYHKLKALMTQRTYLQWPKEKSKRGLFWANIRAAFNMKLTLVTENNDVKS
T1 sequence (O60603 19-784 partner limits assumed): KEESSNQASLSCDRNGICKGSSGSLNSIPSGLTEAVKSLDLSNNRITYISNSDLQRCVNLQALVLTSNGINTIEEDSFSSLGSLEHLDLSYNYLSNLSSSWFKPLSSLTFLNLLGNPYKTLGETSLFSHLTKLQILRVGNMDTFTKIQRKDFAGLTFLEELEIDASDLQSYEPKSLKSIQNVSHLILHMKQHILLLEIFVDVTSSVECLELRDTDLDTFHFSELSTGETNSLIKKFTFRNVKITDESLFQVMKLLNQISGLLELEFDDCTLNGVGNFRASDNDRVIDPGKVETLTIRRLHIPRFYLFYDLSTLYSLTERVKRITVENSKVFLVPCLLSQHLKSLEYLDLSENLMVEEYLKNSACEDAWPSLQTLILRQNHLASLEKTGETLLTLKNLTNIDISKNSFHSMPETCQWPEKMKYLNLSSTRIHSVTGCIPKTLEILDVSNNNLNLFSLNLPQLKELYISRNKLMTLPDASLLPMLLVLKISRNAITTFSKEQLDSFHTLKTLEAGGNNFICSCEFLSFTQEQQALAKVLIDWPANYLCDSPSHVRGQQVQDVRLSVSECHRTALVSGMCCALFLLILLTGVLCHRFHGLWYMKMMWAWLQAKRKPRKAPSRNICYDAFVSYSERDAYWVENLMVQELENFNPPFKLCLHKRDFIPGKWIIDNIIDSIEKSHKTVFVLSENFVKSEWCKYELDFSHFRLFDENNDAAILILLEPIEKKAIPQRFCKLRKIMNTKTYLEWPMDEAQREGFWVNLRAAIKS

This assay has as its target T1, human TLR6 (Homo sapiens, UniProt Q9Y2C9).
T1 construct: expressed in transfected cells; host or cells: Namalwa cells (ATCC CRL-1432), co-transfected with pIFN-α1-luc and pCI-TLR6, G418-selected
The assay is described as follows: Luciferase induction off the IFN-α1 promoter in pIFN-α1-luc/pCI-TLR6 co-transfected Namalwa cells. In kind it is cell-based. The note with it: IRM compound 10 μM, 18 hours, fold increase compared to DMSO negative control, representative experiment. The source says:
The vector pIFN-α1-luc was constructed by inserting BglII sites at both ends of the human IFN-α1 promoter (SEQ ID NO:21). The BglII sites were inserted into the IFN-α1 promoter and the sequence was amplified using the primer pair of SEQ ID NO:22 and SEQ ID NO:23. The amplified IFN-α1 promoter was cloned into the pGL3-Enhancing vector (Promega Corp., Madison, Wis.) at its BglII site.
The vector pCI-TLR6 was constructed by inserting SEQ ID NO:11 (GenBank Accession No. NM 006068), which includes the human TLR6 coding sequence, into the pCI-neo mammalian expression vector (Promega Corp.) at the vector's NheI and MluI restriction sites.
Burkitt's Lymphoma lymphoblastoid Namalwa cells (ATCC Accession No. CRL-1432) were grown by incubation in culture medium overnight. Cells were harvested by centrifugation in a tabletop centrifuge (1200 RPM for 5 minutes), and then resuspended in phosphate buffered sucrose to a concentration of 1.3×10^7 cells per milliliter.
For each transfection, a 750 μL aliquot of the cell suspension was placed in an electroporation cuvette with 4 mm gaps. 10 μg of the pIFN-α1-luc vector and 10 μg of the pCI-TLR6 vector were added to the electroporation cuvette. The cell and vector mixtures were incubated at room temperature for 5 minutes. The cells were electroporated using a BioRad Gene Pulser (BioRad Laboratories, Hercules, Calif.) set to at 500 μF capacitance and […], then incubated at room temperature for 5 minutes.
The electroporated cells were suspended in 10 mLs of culture medium and incubated overnight. Dead cells and debris were removed after 24 hours using a MACS Dead Cell Removal kit (Miltenyi Biotec, Auburn, Calif.). Cells were resuspended in 10 mLs of culture medium and incubated for an additional 24 hours.
Transfected cells were selected by adding G418 (Promega Corp., Madison, Wis.) to a final concentration of 1 mg/mL and incubating the cells for seven days.
The selected transfected cells were counted and resuspended to a concentration of 1×10^6 cell per mL in culture medium. 100 μl aliquots of cells were placed in the wells of a white-walled, white-bottomed 96-well plate (Corning, Inc. Corning, N.Y.). 1.0 μL of an IRM compound from Table 1 (prepared at 1 mM in 100% DMSO) was added to some cell aliquots so that the final concentration of IRM compound was 10 μM. As a positive control, some cell aliquots were incubated with Sendai virus instead of IRM compound. As a negative control, some cell aliquots were incubated with DMSO without IRM compound. In all cases, the cells were incubated for 18 hours.
The plates were equilibrated to room temperature before 1 volume of reconstituted LucLight Plus (Packard Instruments, Meriden, Conn.) was added to each aliquot of cells. Each well of the plate was read on an LJL Analyst (LJL Biosystems, Inc., Sunnyvale, Calif.) set with a 5 minute dark adapt. The data are expressed as the fold increase in luciferase induction off of the IFN-α1 promoter in cell aliquots incubated with the indicated stimulant compared to the negative control in which the cell aliquots were incubated with only DMSO.
`CCOCc1nc2c(N)nc3c(c2n1CC(C)(C)O)CCCC3` [IRM1, 4-amino-2-ethoxymethyl-α,α-dimethyl-6,7,8,9-tetrahydro-1H-imidazo[4,5-c]quinoline-1-ethanol]: the “Fold Increase in Luciferase Induction” value is recorded as 3.6. In the case of `Cc1nc2c(N)nc3ccccc3c2n1CC(C)(C)O` [IRM2, 4-amino-α,α,2-trimethyl-1H-imidazo[4,5-c]quinoline-1-ethanol] it was 2.7.

Consider `CCCCc1nc2c(N)nc3ccccc3c2n1CCCCNS(C)(=O)=O` [IRM3, N-[4-(4-amino-2-butyl-1H-imidazo[4,5-c]quinolin-1-yl)butyl]methanesulfonamide], for which the “Fold Increase in Luciferase Induction” value is 2.6.

For the molecule `Nc1nc2ccccc2c2c1ncn2CCOCCCc1cccnc1` [IRM4, 1-{2-[3-(3-pyridyl)propoxy]ethyl}-1H-imidazo[4,5-c]quinolin-4-amine], the “Fold Increase in Luciferase Induction” value came out at 4.0. Next, `CCCCc1nc2c(N)nc3cccnc3c2n1CC(C)C` [IRM5, 2-butyl-1-(2-methylpropyl)-1H-imidazo[4,5-c][1,5]naphthyridin-4-amine]: 3.2; `CCCCc1nc2c(N)nc3c(c2n1CC(C)C)NCCC3` [IRM6, 2-butyl-6,7,8,9-tetrahydro-1-(2-methylpropyl)-1H-imidazo[4,5-c][1,5]naphthyridin-4-amine]: 2.9; `COCCc1nc2c(N)nc3ccccc3c2n1CCCCNC(=O)c1ccc(-n2cccc2)nc1` [IRM7, N^3-{4-[4-amino-2-(2-methoxyethyl)-1H-imidazo[4,5-c]quinolin-1-yl]butyl}-6-(1H-1-pyrrolyl)nicotinamide]: 3.2. Next, `CCc1nc2c(N)nc3ccccc3c2n1CCCCCS(C)(=O)=O` [IRM8, 2-ethyl-1-[5-(methylsulfonyl)pentyl]-1H-imidazo[4,5-c]quinolin-4-amine]: 2.3.
